Experimental data taken from PubChem BioAssay (NCI).
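1) Cells in 96-well plates. 2) Compound, 48 h, 5 concentrations. 3) Linear interpolation between surrounding doses. 4) Unreached endpoint = highest concentration. GI50 is the concentration that inhibits growth by half. The concentration for full growth arrest is given as TGI.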

What was measured:
Assay in all cases: NCI tumour cell line growth inhibition, 48 h
DMS 114 small cell lung = test system: DMS 114 small cell lung
DMS 273 small cell lung = test system: DMS 273 small cell lung
LXFL 529 NSCLC = test system: LXFL 529 NSCLC
SNB-78 CNS = test system: SNB-78 CNS
XF 498 CNS = test system: XF 498 CNS
HOP-18 NSCLC = test system: HOP-18 NSCLC
RXF-631 renal = test system: RXF-631 renal
P388/ADR leukemia = test system: P388/ADR leukemia
P388 leukemia = test system: P388 leukemia
HS 578T breast = test system: HS 578T breast
SN12K1 renal = test system: SN12K1 renal

Compound | TGI (DMS 114 small cell lung) [µM] | TGI (DMS 273 small cell lung) [µM] | TGI (LXFL 529 NSCLC) [µM] | TGI (SNB-78 CNS) [µM] | TGI (XF 498 CNS) [µM] | TGI (HOP-18 NSCLC) [µM] | TGI (RXF-631 renal) [µM] | further results
CC1=C2CCCC2=C/C(=N/Nc2ccc([N+](=O)[O-])cc2[N+](=O)[O-])CC1 | > 100 | > 100 | > 100 | > 100 | > 100 | > 100 | – | –
O=c1[nH]cc(COCCO)c(=O)[nH]1 | > 100 | > 100 | > 100 | > 100 | > 100 | > 100 | > 100 | –
O=C(NCCCCN=c1cccccc1NCCCCNC(=O)OCc1ccccc1)OCc1ccccc1 | 29.4 | 31.3 | – | 71.1 | 18.6 | – | 26.1 | –
O=C1CC(C[C@H](O)C2CCCCC2O)CC(=O)N1Cc1ccccc1 (stereo partly specified) | – | > 100 | > 100 | > 100 | > 100 | > 100 | > 100 | –
CCOc1ccc2c(c1)[n+]([O-])c(-c1ccccc1Cl)c(N)[n+]2[O-] | > 100 | > 100 | > 100 | > 100 | > 100 | > 100 | > 100 | –
CCOc1ccc(N2C(=O)/C(=C/c3ccc(N(CCC#N)CCC#N)cc3)N=C2c2cc([N+](=O)[O-])ccc2Cl)cc1 | > 100 | 40.8 | 95 | > 100 | – | > 100 | > 100 | –
COc1ccc(/C(=N\NC(=O)C(N)=O)C(c2ccc(OC)cc2)C2(O)C(=O)Nc3c(Cl)cccc32)cc1 (stereo unspecified) | > 100 | – | > 100 | > 100 | > 100 | > 100 | – | –
CCOC(=O)C(C)(C)Oc1ccc2c(C)c(-c3ccc(Cl)cc3)c(=O)oc2c1 | > 100 | > 100 | > 100 | – | 83.9 | – | > 100 | –
CCC1C2C=CC(CC2)N1S(=O)(=O)c1ccc(C)cc1 (stereo unspecified) | 58.1 | 60.2 | 55.5 | – | – | – | > 100 | –
N=c1ccn2c(n1)OC1C(O)C(CO)OC12 (stereo unspecified) | > 163 | > 364 | – | > 1000 | > 1000 | > 662 | – | TGI (P388/ADR leukemia): 5.13 µM; TGI (P388 leukemia): 4.37 µM; GI50 (HS 578T breast): > 100 µM; TGI (HS 578T breast): > 1000 µM; TGI (SN12K1 renal): > 1000 µM
CC(=O)n1c2c(c(=O)n1-c1ccccc1)S(=O)CCC2 (stereo unspecified) | > 100 | > 100 | > 100 | > 100 | > 100 | – | > 100 | –
CCCCCCC[CH2][Sn]1([CH2]CCCCCCC)[O]C(=O)c2cccnc2[S]1 | > 100 | > 100 | > 100 | > 100 | > 100 | – | > 100 | GI50 (DMS 114 small cell lung): > 100 µM; GI50 (RXF-631 renal): > 100 µM; GI50 (DMS 273 small cell lung): > 100 µM; GI50 (LXFL 529 NSCLC): > 100 µM; GI50 (SNB-78 CNS): > 100 µM; GI50 (XF 498 CNS): 30.8 µM
COC(=O)[C@]1(C)CCCC2(C)C1CC[C@H]1C=C(C)[C@H]3CCC12C3 (stereo partly specified) | > 100 | – | > 100 | > 100 | > 100 | – | > 100 | –
CCc1c(OC(C)=O)c2c(NC3OC(COC(C)=O)C(OC(C)=O)C(OC(C)=O)C3OC(C)=O)nc(OC)nc2oc1=O (stereo unspecified) | > 100 | > 100 | > 100 | > 100 | > 100 | > 100 | – | –
O=C(CSc1nnc(-c2ccc(N=Cc3ccc(Cl)cc3)cc2)o1)Nc1ccc(Cl)cc1 | > 100 | > 100 | > 100 | > 100 | > 100 | > 100 | – | –
Cc1ccc(S(=O)(=O)N/N=C/c2oc(-c3ccncc3)c(-c3ccncc3)c2[N+](=O)[O-])cc1 | – | > 100 | > 100 | > 100 | > 100 | > 100 | > 100 | –
O=C(O)[C@H](NS(=O)(=O)c1ccc2ccccc2c1)c1ccccc1 | – | > 100 | > 100 | – | > 100 | > 100 | > 100 | –
Cc1ccc(NC(=O)C2C(=O)N(c3ccc(C)c(C)c3)C(=O)C2N=N)cc1C (stereo unspecified) | > 100 | > 100 | > 100 | > 100 | > 100 | > 100 | > 100 | –
CCc1cccc(C)c1NC(=O)C(=O)Cc1nc2ccccc2o1 | > 100 | – | > 100 | > 100 | > 100 | > 100 | – | –
CCOC(=O)C1(c2ccccc2)CCC(=O)CC1 | > 100 | > 100 | > 100 | > 100 | – | > 100 | > 100 | –
COc1ccc(-c2cc(-c3ccccc3)c(C#N)c(=O)n2C2OC(CO)C(O)C(O)C2O)cc1 (stereo unspecified) | > 100 | > 100 | > 100 | > 100 | – | > 100 | > 100 | –
